Assay results taken from paper PMC11503540, “Development of a pharmacological evidence‐based anticholinergic burden scale for medications commonly used in older adults” (Geriatrics & Gerontology International, 2023).

Target: T1, muscarinic receptor (rat brain)
T1 construct: gene Chrm1; native receptors in particulate (40 000 g pellet) preparation of whole brain without cerebellum; subtype mixture not resolved
Assay: [3H]NMS displacement, rat brain membranes, filtration
Type: binding
Settings: [3H]NMS 0.3 nM (0.5 nM in data analysis), 30 mM Na+/HEPES pH 7.5, 25 °C, 60 min; competitive
Excerpt: [3H]NMS displacement, rat brain membranes, filtration on muscarinic receptor (rat brain)

| Compound | IC50 [µM] |
| --- | --- |
| O=C(O[C@H]1CN2CCC1CC2)N1CCc2ccccc2[C@@H]1c1ccccc1 [Solifenacin] | 0.00738 |
| COCCCOc1ccnc(C[S+]([O-])c2nc3ccccc3[nH]2)c1C (stereo not drawn) [Rabeprazole] | 18.1 |
| OC(CCN1CCCCC1)(c1ccccc1)C1CC2C=CC1C2 (stereo not drawn) [Biperiden] | 0.0105 |
| C[C@@H]1C[C@H]2[C@@H]3C[C@H](F)C4=CC(=O)C=C[C@]4(C)[C@@]3(F)[C@@H](O)C[C@]2(C)[C@@]1(OC(=O)c1ccco1)C(=O)SCF [Fluticasone furoate] | 18.2 |
| OC[C@H]1O[C@@H](c2ccc(Cl)c(Cc3ccc(O[C@H]4CCOC4)cc3)c2)[C@H](O)[C@@H](O)[C@@H]1O [Empagliflozin] | 22.1 |
| CC#CCn1c(N2CCC[C@@H](N)C2)nc2c1c(=O)n(Cc1nc(C)c3ccccc3n1)c(=O)n2C [Linagliptin] | 2.89 |
| CCCOC(C(=O)OC1CCN(C)CC1)(c1ccccc1)c1ccccc1 [Propiverine] | 0.35 |
| CN1CCC2=C(C1)c1ccccc1Cc1ccccc12 [Setiptiline] | 1.97 |
| CCC(NC(C)C)C(O)c1ccc(O)c2[nH]c(=O)ccc12 (stereo not drawn) [Procaterol] | 3.9 |
| CCCC[C@H](C)C[C@H](O)/C=C/[C@H]1[C@H](O)CC(=O)[C@@H]1CCCC/C=C/C(=O)O [Limaprost] | 56.1 |
| CN(C)CCCN1c2ccccc2Sc2ccc(Cl)cc21 [Chlorpromazine] | 0.376 |
| C[N+]1(C)CCCC(OC(=O)C(O)(c2ccccc2)c2ccccc2)C1 (stereo not drawn) [Mepenzolate] | 0.00306 |
| NC1=NCC2c3ccccc3Cc3ccccc3N12 (stereo not drawn) [Epinastine] | 26.3 |
| CN(C)CCC(c1ccc(Cl)cc1)c1ccccn1 (stereo not drawn) [Chlorpheniramine] | 5.1 |
| CNCC[C@H](Oc1cccc2ccccc12)c1cccs1 [Duloxetine] | 19.3 |
| Cn1c(=O)cc(N2CCC[C@@H](N)C2)n(Cc2ccccc2C#N)c1=O [Alogliptin] | 81.5 |
| CCC(=O)O[C@]1(C(=O)SCF)[C@H](C)C[C@H]2[C@@H]3C[C@H](F)C4=CC(=O)C=C[C@]4(C)[C@@]3(F)[C@@H](O)C[C@@]21C [Fluticasone Propionate] | 8 |
| CC(C)(C)NCC(O)c1ccccc1Cl (stereo not drawn) [Tulobuterol] | 71.9 |
| Clc1ccc(C(OCCN2CCCCC2)c2ccccc2)cc1 (stereo not drawn) [Cloperastine] | 0.0003 |
| Cc1c(-c2ccccc2)oc2c(C(=O)OCCN3CCCCC3)cccc2c1=O [Flavoxate] | 11.5 |
| Cc1cncc(CN2CCC(=C3c4ccc(Cl)cc4CCc4cccnc43)CC2)c1 [Rupatadine] | 1.51 |
| COc1cc2nc(N3CCN(C(=O)C4COc5ccccc5O4)CC3)nc(N)c2cc1OC (stereo not drawn) [Doxazosin] | 13.2 |
| O=C(Nc1ccc(C[C@@H]2CC[C@H]([C@H](O)c3ccccc3)N2)cc1)[C@@H]1CCc2nccc(=O)n21 [Vibegron] | 5.32 |

| Compound | IC50 [µM] |
| --- | --- |
| OCc1cc([C@@H](O)CNCCCCCCOCCOCc2c(Cl)cccc2Cl)ccc1O [Vilanterol] | 6.1 |
| OC(CCCN1CCCCC1)(c1ccccc1)c1ccccc1 [Difenidol] | 0.325 |
| CC(C)N(CCC(C(N)=O)(c1ccccc1)c1ccccn1)C(C)C (stereo not drawn) [Disopyramide] | 5.99 |
| CC(C)C(=O)Oc1ccc(CO)cc1[C@H](CCN(C(C)C)C(C)C)c1ccccc1 [Fesoterodine] | 0.012 |
| OCc1cc(C(O)CNCCCCCCOCCCCc2ccccc2)ccc1O (stereo not drawn) [Salmeterol] | 6.1 |
| CC(CN(C)C)CN1c2ccccc2CCc2ccccc21 (stereo not drawn) [Trimipramine] | 0.099 |
| COc1cc(O)c(C(=O)Nc2nc(C(=O)NCCN(C(C)C)C(C)C)cs2)cc1OC [Acotiamide] | 44.2 |
| Nc1nc(CC(=O)Nc2ccc(CCNC[C@H](O)c3ccccc3)cc2)cs1 [Mirabegron] | 6.62 |
| OC(c1ccccc1)(c1ccccc1)C12CC[N+](CCOCc3ccccc3)(CC1)CC2 [Umeclidinium] | 0.00015 |
| C[N+]1(C)[C@@H]2C[C@@H](OC(=O)C(O)(c3cccs3)c3cccs3)C[C@H]1[C@@H]1O[C@@H]12 [Tiotropium] | 0.00039 |
| CN(C)CCCN1c2ccccc2CCc2ccccc21 [Imipramine] | 0.279 |
| CNCCC=C1c2ccccc2CCc2ccccc21 [Nortriptyline] | 0.168 |
| CNCc1cc(-c2ccccc2F)n(S(=O)(=O)c2cccnc2)c1 [Vonoprazan] | 1.7 |
| CC(C)COCC(CN(Cc1ccccc1)c1ccccc1)N1CCCC1 (stereo not drawn) [Bepridil] | 20.8 |
| Clc1ccccc1CN1CCc2sccc2C1 [Ticlopidine] | 18 |
| OC(CCN1CCCCC1)(c1ccccc1)c1ccccc1 [Pridinol] | 0.0536 |
| CN(C)CCC=C1c2ccccc2CCc2ccccc21 [Amitriptyline] | 0.0293 |
| CN(C)CCOC1=Cc2ccccc2Sc2ccc(Cl)cc21 [Zotepine] | 0.554 |
| COc1ccc(CC(C)NCC(O)c2ccc(O)c(NC=O)c2)cc1 (stereo not drawn) [Formoterol] | 14.3 |
| CCc1cc2c(cc1CC)CC(NC[C@H](O)c1ccc(O)c3[nH]c(=O)ccc13)C2 [Indacaterol] | 39.3 |
| CCc1ccc(C(=O)C(C)CN2CCCCC2)cc1 (stereo not drawn) [Eperisone] | 0.902 |
| CN(CCCCCCN(C)C(=O)Oc1ccc[n+](C)c1)C(=O)Oc1ccc[n+](C)c1 [Distigmine] | 1.7 |
